# Key:
# lambsquarters = assay: Test Example 5: herbicidal effect by foliage application, plastic box (Table 20, symbol O); type: in vivo, lambsquarters (Chenopodium album)
# In short: (§1)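 Post-emergence foliar test in sterilized diluvial soil. Compound applied as water-diluted emulsion at a predetermined rate to 14-day-old plants; evaluation at three weeks.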
# rice flat sedge = assay: Test Example 3: herbicidal effect by foliage application, Wagner pot (Table 18, symbol E); type: in vivo, rice flat sedge (Cyperus iria); conditions: 320 g/ha
# In short: (§2)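 Plants were sown in alluvial soil held under 0.1–0.5 cm standing water and grown 14 days in a greenhouse at 25–30 °C. An emulsifiable formulation, water-diluted to the set dose, was then sprayed onto the foliage, and effects were scored three weeks later using previously defined criteria.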
# windgrass = assay: Test Example 5: herbicidal effect by foliage application, plastic box (Table 20, symbol L); type: in vivo, windgrass (Apera spica-venti)
# In short: as §1
# green foxtail = assay: Test Example 5: herbicidal effect by foliage application, plastic box (Table 20, symbol G); type: in vivo, green foxtail (Setaria viridis)
# In short: as §1
# barnyard grass [1] = assay: Test Example 3: herbicidal effect by foliage application, Wagner pot (Table 18, symbol H); type: in vivo, barnyard grass (Echinochloa crus-galli); conditions: 320 g/ha
# In short: as §2
# persian speedwell = assay: Test Example 5: herbicidal effect by foliage application, plastic box (Table 20, symbol R); type: in vivo, Persian speedwell (Veronica persica)
# In short: as §1
# chickweed = assay: Test Example 5: herbicidal effect by foliage application, plastic box (Table 20, symbol P); type: in vivo, common chickweed (Stellaria media)
# In short: as §1
# wild oat = assay: Test Example 5: herbicidal effect by foliage application, plastic box (Table 20, symbol I); type: in vivo, wild oat (Avena fatua)
# In short: as §1
# southern crabgrass = assay: Test Example 5: herbicidal effect by foliage application, plastic box (Table 20, symbol F); type: in vivo, southern crabgrass (Digitaria ciliaris)
# In short: as §1
# velvetleaf = assay: Test Example 5: herbicidal effect by foliage application, plastic box (Table 20, symbol M); type: in vivo, velvetleaf (Abutilon theophrasti)
# In short: as §1
# Italian ryegrass = assay: Test Example 5: herbicidal effect by foliage application, plastic box (Table 20, symbol K); type: in vivo, Italian ryegrass (Lolium multiflorum)
# In short: as §1
# Chinese sprangletop = assay: Test Example 3: herbicidal effect by foliage application, Wagner pot (Table 18, symbol D); type: in vivo, chinese sprangletop (Leptochloa chinensis); conditions: 320 g/ha
# In short: as §2
# redroot pigweed = assay: Test Example 5: herbicidal effect by foliage application, plastic box (Table 20, symbol N); type: in vivo, redroot pigweed (Amaranthus retroflexus)
# In short: as §1
# barnyard grass [2] = assay: Test Example 5: herbicidal effect by foliage application, plastic box (Table 20, symbol H); type: in vivo, barnyard grass (Echinochloa crus-galli)
# In short: as §1
# blackgrass = assay: Test Example 5: herbicidal effect by foliage application, plastic box (Table 20, symbol J); type: in vivo, blackgrass (Alopecurus myosuroides)
# In short: as §1
# [3] = 320 g/ha, foliage application after 14-day growth, evaluated three weeks after application
# [4] = foliage application, 320 g/ha, three weeks after application
# [5] = amount of applied herbicide 320 g/ha, foliage application after 14-day growth, evaluated three weeks after application
# [6] = foliage application, AAH 320 g/ha, three weeks after application
# [7] = foliage application, 320 g/ha, evaluated three weeks after application
structure (smiles),measurement,setting,value
CCCC(=O)Oc1c(C)nn(C)c(=O)c1-c1c(-c2ccc(OC(F)(F)F)cc2)sc2cc(Cl)ccc12 [3-150],herbicidal effect on O: lambsquarters (evaluation grade 0-5),lambsquarters; [3],4 (Herbicidal rate of 70% or more and less than 90%)
same,herbicidal effect on rice flat sedge (E),rice flat sedge,2 (Herbicidal rate of 20% or more and less than 40%)
same,herbicidal effect on L: windgrass (evaluation grade 0-5),windgrass; [3],0 (Herbicidal rate of 5% or less (almost no effect))
same,herbicidal effect on G: green foxtail (evaluation grade 0-5),green foxtail; [3],0 (Herbicidal rate of 5% or less (almost no effect))
same,herbicidal effect on barnyard grass (H),barnyard grass [1],5 (Herbicidal rate of 90% or more (almost completely withered))
same,herbicidal effect on R: persian speedwell (evaluation grade 0-5),persian speedwell; [3],5 (Herbicidal rate of 90% or more (almost completely withered))
same,herbicidal effect on P: chickweed (evaluation grade 0-5),chickweed; [3],3 (Herbicidal rate of 40% or more and less than 70%)
same,herbicidal effect on I: wild oat (evaluation grade 0-5),wild oat; [3],0 (Herbicidal rate of 5% or less (almost no effect))
same,herbicidal effect on F: southern crabgrass (evaluation grade 0-5),southern crabgrass; [3],0 (Herbicidal rate of 5% or less (almost no effect))
same,herbicidal effect on M: velvetleaf (evaluation grade 0-5),velvetleaf; [3],2 (Herbicidal rate of 20% or more and less than 40%)
same,herbicidal effect on K: Italian ryegrass (evaluation grade 0-5),Italian ryegrass; [3],0 (Herbicidal rate of 5% or less (almost no effect))
same,herbicidal effect on Chinese sprangletop (D),Chinese sprangletop,3 (Herbicidal rate of 40% or more and less than 70%)
same,herbicidal effect on N: redroot pigweed (evaluation grade 0-5),redroot pigweed; [3],3 (Herbicidal rate of 40% or more and less than 70%)
same,herbicidal effect on H: barnyard grass (evaluation grade 0-5),barnyard grass [2]; [3],3 (Herbicidal rate of 40% or more and less than 70%)
same,herbicidal effect on J: blackgrass (evaluation grade 0-5),blackgrass; [3],0 (Herbicidal rate of 5% or less (almost no effect))
CCOc1ccccc1-c1sc2cc(O)ccc2c1-c1c(O)c(C)nn(C)c1=O [3-097],"O: lambsquarters, herbicidal effect grade",lambsquarters; [4],3 (Herbicidal rate of 40% or more and less than 70%)
same,herbicidal effect on rice flat sedge (E),rice flat sedge,3 (Herbicidal rate of 40% or more and less than 70%)
same,"L: windgrass, herbicidal effect grade",windgrass; [4],2 (Herbicidal rate of 20% or more and less than 40%)
same,"G: green foxtail, herbicidal effect grade",green foxtail; [4],5 (Herbicidal rate of 90% or more (almost completely withered))
same,herbicidal effect on barnyard grass (H),barnyard grass [1],4 (Herbicidal rate of 70% or more and less than 90%)
same,"R: persian speedwell, herbicidal effect grade",persian speedwell; [4],3 (Herbicidal rate of 40% or more and less than 70%)
same,"P: chickweed, herbicidal effect grade",chickweed; [4],3 (Herbicidal rate of 40% or more and less than 70%)
same,"I: wild oat, herbicidal effect grade",wild oat; [4],1 (Herbicidal rate of 5% or more and less than 20%)
same,"F: southern crabgrass, herbicidal effect grade",southern crabgrass; [4],4 (Herbicidal rate of 70% or more and less than 90%)
same,"M: velvetleaf, herbicidal effect grade",velvetleaf; [4],3 (Herbicidal rate of 40% or more and less than 70%)
same,"K: Italian ryegrass, herbicidal effect grade",Italian ryegrass; [4],0 (Herbicidal rate of 5% or less (almost no effect))
same,herbicidal effect on Chinese sprangletop (D),Chinese sprangletop,4 (Herbicidal rate of 70% or more and less than 90%)
same,"N: redroot pigweed, herbicidal effect grade",redroot pigweed; [4],4 (Herbicidal rate of 70% or more and less than 90%)
same,"H: barnyard grass, herbicidal effect grade",barnyard grass [2]; [4],2 (Herbicidal rate of 20% or more and less than 40%)
same,"J: blackgrass, herbicidal effect grade",blackgrass; [4],0 (Herbicidal rate of 5% or less (almost no effect))
CCCC(=O)Oc1c(C)nn(C)c(=O)c1-c1c(-c2ccccc2SCC)sc2c(Cl)cccc12 [4-091],"Herbicidal effect by foliage application, O: lambsquarters",lambsquarters; [5],1 (Herbicidal rate of 5% or more and less than 20%)
same,herbicidal effect on rice flat sedge (E),rice flat sedge,3 (Herbicidal rate of 40% or more and less than 70%)
same,"Herbicidal effect by foliage application, L: windgrass",windgrass; [5],0 (Herbicidal rate of 5% or less (almost no effect))
same,"Herbicidal effect by foliage application, G: green foxtail",green foxtail; [5],3 (Herbicidal rate of 40% or more and less than 70%)
same,herbicidal effect on barnyard grass (H),barnyard grass [1],5 (Herbicidal rate of 90% or more (almost completely withered))
same,"Herbicidal effect by foliage application, R: persian speedwell",persian speedwell; [5],4 (Herbicidal rate of 70% or more and less than 90%)
same,"Herbicidal effect by foliage application, P: chickweed",chickweed; [5],0 (Herbicidal rate of 5% or less (almost no effect))
same,"Herbicidal effect by foliage application, I: wild oat",wild oat; [5],0 (Herbicidal rate of 5% or less (almost no effect))
same,"Herbicidal effect by foliage application, F: southern crabgrass",southern crabgrass; [5],4 (Herbicidal rate of 70% or more and less than 90%)
same,"Herbicidal effect by foliage application, M: velvetleaf",velvetleaf; [5],2 (Herbicidal rate of 20% or more and less than 40%)
same,"Herbicidal effect by foliage application, K: Italian ryegrass",Italian ryegrass; [5],0 (Herbicidal rate of 5% or less (almost no effect))
same,herbicidal effect on Chinese sprangletop (D),Chinese sprangletop,5 (Herbicidal rate of 90% or more (almost completely withered))
same,"Herbicidal effect by foliage application, N: redroot pigweed",redroot pigweed; [5],3 (Herbicidal rate of 40% or more and less than 70%)
same,"Herbicidal effect by foliage application, H: barnyard grass",barnyard grass [2]; [5],3 (Herbicidal rate of 40% or more and less than 70%)
same,"Herbicidal effect by foliage application, J: blackgrass",blackgrass; [5],0 (Herbicidal rate of 5% or less (almost no effect))
Cc1nn(C)c(=O)c(-c2c(-c3ccc(OCC(=O)NCC(F)(F)F)cc3)sc3ccccc23)c1O [1-145],"O: lambsquarters, herbicidal effect",lambsquarters; [6],0 (Herbicidal rate of 5% or less (almost no effect))
same,"L: windgrass, herbicidal effect",windgrass; [6],0 (Herbicidal rate of 5% or less (almost no effect))
same,"G: green foxtail, herbicidal effect",green foxtail; [6],0 (Herbicidal rate of 5% or less (almost no effect))
same,"R: persian speedwell, herbicidal effect",persian speedwell; [6],0 (Herbicidal rate of 5% or less (almost no effect))
same,"P: chickweed, herbicidal effect",chickweed; [6],3 (Herbicidal rate of 40% or more and less than 70%)
same,"I: wild oat, herbicidal effect",wild oat; [6],0 (Herbicidal rate of 5% or less (almost no effect))
same,"F: southern crabgrass, herbicidal effect",southern crabgrass; [6],0 (Herbicidal rate of 5% or less (almost no effect))
same,"M: velvetleaf, herbicidal effect",velvetleaf; [6],0 (Herbicidal rate of 5% or less (almost no effect))
same,"K: Italian ryegrass, herbicidal effect",Italian ryegrass; [6],0 (Herbicidal rate of 5% or less (almost no effect))
same,"N: redroot pigweed, herbicidal effect",redroot pigweed; [6],0 (Herbicidal rate of 5% or less (almost no effect))
same,"H: barnyard grass, herbicidal effect",barnyard grass [2]; [6],0 (Herbicidal rate of 5% or less (almost no effect))
same,"J: blackgrass, herbicidal effect",blackgrass; [6],0 (Herbicidal rate of 5% or less (almost no effect))
CCCC(=O)Oc1c(C)nn(C)c(=O)c1-c1c(-c2ccccc2SC)sc2ccc(C)cc12 [2-143],herbicidal effect on O: lambsquarters (criteria 0-5),lambsquarters; [7],0 (Herbicidal rate of 5% or less (almost no effect))
same,herbicidal effect on L: windgrass (criteria 0-5),windgrass; [7],0 (Herbicidal rate of 5% or less (almost no effect))
same,herbicidal effect on G: green foxtail (criteria 0-5),green foxtail; [7],0 (Herbicidal rate of 5% or less (almost no effect))
same,herbicidal effect on R: persian speedwell (criteria 0-5),persian speedwell; [7],0 (Herbicidal rate of 5% or less (almost no effect))
same,herbicidal effect on P: chickweed (criteria 0-5),chickweed; [7],3 (Herbicidal rate of 40% or more and less than 70%)
same,herbicidal effect on I: wild oat (criteria 0-5),wild oat; [7],0 (Herbicidal rate of 5% or less (almost no effect))
same,herbicidal effect on F: southern crabgrass (criteria 0-5),southern crabgrass; [7],0 (Herbicidal rate of 5% or less (almost no effect))
same,herbicidal effect on M: velvetleaf (criteria 0-5),velvetleaf; [7],0 (Herbicidal rate of 5% or less (almost no effect))
same,herbicidal effect on K: Italian ryegrass (criteria 0-5),Italian ryegrass; [7],0 (Herbicidal rate of 5% or less (almost no effect))
same,herbicidal effect on N: redroot pigweed (criteria 0-5),redroot pigweed; [7],0 (Herbicidal rate of 5% or less (almost no effect))
same,herbicidal effect on H: barnyard grass (criteria 0-5),barnyard grass [2]; [7],0 (Herbicidal rate of 5% or less (almost no effect))
same,herbicidal effect on J: blackgrass (criteria 0-5),blackgrass; [7],0 (Herbicidal rate of 5% or less (almost no effect))

# Reference: US20230085307A1, “PYRIDAZINONE COMPOUND AND HERBICIDE” (NISSAN CHEMICAL CORPORATION, priority 2019, published 2023)
